Laboratory results: the SangsterLogP compilation

SMILES | logP
CN1CCN(CCCN2c3ccccc3Sc3ccc(C(F)(F)F)cc32)CC1 | 5.03
CC(C)Sc1nnc(C(C)C)c(=O)n1N | 2.06
CCC(=O)c1cccc(OC(=O)NC)c1 | 1.49
ClC=C(Cl)Cl | 2.42
O=c1ccn(C2C=CC(CO)O2)c(=O)[nH]1 (centres undefined) | -1.07
Brc1ccccc1Br | 3.64
O=C(CCNNC(=O)c1ccncc1)NCc1ccccc1 | 0.87
OC1CCCCC1 | 1.23
Fc1ccccc1F | 2.37
Cc1ccc2c([N+](=O)[O-])cc[n+]([O-])c2c1 | 1.42
C1CCCC1 | 3
N#Cc1ccccc1 | 1.56
Brc1cccnc1 | 1.6
CCCC(C)(COC(N)=O)COC(N)=O | 0.7
Oc1ncnc2[nH]cnc12 | -1.11
Oc1ccc(-c2ccccc2)cc1 | 3.2
Cc1ccc2cc(C)ccc2c1 | 4.31
CCC(C)C1(CC)C(=O)NC(=O)NC1=O (centres undefined) | 1.65
c1cc2c3c(cccc3c1)CC2 | 3.92
C=CCOc1ccc(CC(=O)O)cc1Cl | 2.48
O=C(O)c1cccc2ccccc12 | 3.1
CCC(C)=O | 0.29
O=NN1CCOCC1 | -0.44
Cc1ccc(C(C)C)cc1 | 4.1
O=[N+]([O-])c1cc[n+]([O-])c2ccc(Cl)cc12 | 1.41
CC1=c2[nH]c3c(c2CCN1)C=CC(=O)C=3 | 2.19

SMILES | logP
N#Cc1ccc(NC=O)cc1 | 1.08
Cc1cn([C@H]2C=C[C@@H](CO)O2)c(=O)[nH]c1=O | -0.72
O=c1[nH]c2nc(O)nc(O)c2[nH]1 | -2.17
CC(C)CN | 0.73
CI | 1.51
CCCCC(C)=O | 1.38
C#C | 0.37
Nc1ncnc2c1ncn2[C@H]1CC[C@@H](CO)O1 | -0.25
CC(Oc1ccccc1)C(=O)NC1C(=O)N2C1SC(C)(C)C2C(=O)O (centres undefined) | 2.2
CC(=O)C(C#N)=NNc1ccc([N+](=O)[O-])cc1[N+](=O)[O-] | 3.4
CCNC(=O)c1ccc(S(N)(=O)=O)cc1 | 0.03
Nc1cccc2ncccc12 | 1.16
COc1cccc(C(=O)O)c1 | 2.02
Nc1cccc(O)c1 | 0.21
CCC1(c2ccccc2)C(=O)NC(=O)NC1=O | 1.47
CNC(=O)Oc1cccc(N(C)C)c1 | 1.43
NS(=O)(=O)c1cccc2cccnc12 | 0.42
O=C1CNC(=O)N1 | -1.69
Cc1ccnc(N)c1 | 0.56
O=C(O)c1ccc([N+](=O)[O-])cc1 | 1.89
O=C(c1ccccc1)c1ccncc1 | 1.98
CC(=O)S[C@@H]1CC2=CC(=O)CC[C@]2(C)[C@H]2CC[C@@]3(C)[C@@H](CC[C@@]34CCC(=O)O4)[C@H]12 | 2.78
Oc1ccccn1 | -0.58
c1ccc2[nH]ncc2c1 | 1.77
c1ccc(-c2ncc[nH]2)cc1 | 1.88
CNC(=O)Oc1cccc(C)c1 | 1.7

SMILES | logP
CC1CC(C)C(=O)C(C(O)CC2CC(=O)NC(=O)C2)C1 (centres undefined) | 0.55
OCC(O)CO | -1.76
CSc1ccc2c(c1)N(CCC1CCCCN1C)c1ccccc1S2 (centres undefined) | 5.9
Cc1cccc(Nc2ccccc2C(=O)O)c1C | 5.12
c1ccc2cc3c(ccc4ccccc43)cc2c1 | 5.76
CCc1ccc(OC(=O)NC)cc1 | 2.23
Cc1cccc2c(C)cccc12 | 4.38
O=C(CCCN1CCC(O)(c2ccc(Cl)cc2)CC1)c1ccc(F)cc1 | 3.36
COc1cccc(C=O)c1O | 1.37
C=CCC1(CCCC)C(=O)NC(=O)NC1=O | 2.31
CCN(CC)CCNC(=O)c1ccc(N)cc1 | 0.88
Oc1cc(Cl)c(Cl)cc1Cl | 3.72
C=CCOc1cc(C(=O)O)ccc1N | 1.25
CN(N=O)C(N)=O | -0.03
CC(=O)C(C#N)=NNc1ccc(Cl)c(Cl)c1 | 4.56
COC(=O)C(C#N)=NNc1ccc(S(=O)(=O)C(F)(F)F)cc1 | 4.22
NCCCC[C@H](N)C(=O)O | -3.05
CN1CCc2cccc3c2C1Cc1ccc(O)c(O)c1-3 (centres undefined) | 2.3
CCCCNc1ccc(C(=O)OCCN(C)C)cc1 | 3.51
FCF | 0.2
CCn1cc(C(=O)O)c(=O)c2ccc(C)nc21 | 1.59
CCc1ccccc1N | 1.74
O=C(O)c1ccc(N=C=S)cc1 | 3.52
Cc1ncc(CO)c(CO)c1O | -0.77
COC(=O)c1ccccc1O | 2.55
COC(=O)C(C#N)=NNc1cc(Cl)cc(Cl)c1 | 4.5

SMILES | logP
CCCNC(C)CC (centres undefined) | 1.91
CF | 0.51
CCCCN | 0.97
C1CC1 | 1.72
c1ccsc1 | 1.81
Cc1ccccc1N | 1.32
Brc1ccc2[nH]ccc2c1 | 3
O=NN1CCCCC1 | 0.36
Oc1ncnc2[nH]ncc12 | -0.55
CC(=O)c1ccc(C)cc1 | 2.1
C=CCNCCC | 1.33
Brc1ccc2ncccc2c1 | 2.83
COc1cccc(CC(C)N)c1OC (centres undefined) | 1.49
c1ccc(-c2ccncc2)cc1 | 2.59
COP(=O)(OC)OC | -0.65
CCCCOCCO | 0.83
CC(=O)c1ccc(S(=O)(=O)NC(=O)NC2CCCCC2)cc1 | 2.44
O=C(O)CCCCCCCC(=O)O | 1.57
CCCCc1ccc(C(=O)O)nc1 | -1.29
Cc1c[n+]([O-])c2ccccc2c1[N+](=O)[O-] | 1.06
CC(C)NCC(O)c1ccc([N+](=O)[O-])cc1 (centres undefined) | 1.28
Cc1ccc(CO)cc1 | 1.58
Oc1cccc(Br)c1 | 2.63
OC(c1ccccc1)C1CC1 (centres undefined) | 1.95
NC(=O)CCCc1cccnc1 | -0.08
COC(=O)C(C#N)=NNc1cc(C(F)(F)F)ccc1Cl | 4.42

SMILES | logP
Cc1cccc(C)c1C | 3.66
O=[N+]([O-])/C=C/c1ccccc1 | 2.11
CCCCOc1ccc(CC(=O)NO)cc1 | 2.08
CCOc1ccc(O)cc1 | 1.81
CCCCc1ccccc1 | 4.38
Cc1ccccc1C | 3.12
Cc1ccnc(NS(=O)(=O)c2ccc(N)cc2)n1 | 0.14
O=CNc1ccccc1 | 1.15
Cc1cccc(OCC(=O)O)c1 | 1.78
NS(=O)(=O)c1ccc([N+](=O)[O-])cc1 | 0.64
CC[C@@H]1C(=O)OC[C@@H]1Cc1cncn1C | 0.12
Nc1nc(N)c2nc(-c3ccccc3)c(N)nc2n1 | 0.98
O=C(O)Cc1ccc([N+](=O)[O-])cc1 | 1.39
CC(C)n1nnc2ccccc21 | 1.98
CCCn1nnc2ccccc21 | 2.13
O=S(c1ccccc1)c1ccccc1 | 2.06
Cc1ccc2cccc(O)c2n1 | 2.33
CNCc1ccccc1 | 1.52
CC(=O)Nc1ccc(F)cc1 | 1.47
Nc1nc2c(ncn2[C@@H]2O[C@H](CO)[C@@H](O)[C@H]2O)c(=O)[nH]1 | -1.9
C[C@]12CCC(=O)C=C1CC[C@@H]1[C@@H]2C(=O)C[C@@]2(C)[C@H]1CC[C@]2(O)C(=O)CO | 1.47
O=C(O)c1cccc(I)c1 | 3.13
Nc1ccc(S(=O)(=O)c2ccc(N)cc2)cc1 | 0.97
Nc1ccc(C(F)(F)F)cc1 | 1.95
COc1ccccc1CO | 1.13
